According to BigSolDB 2.1:

O=P1(Oc2ccccc2)OCC2(CO1)COP(=O)(Oc1ccccc1)OC2 (configuration not stated)
Conditions	solubility (mole fraction)
in 1,4-dioxane, 293.26 K	0.00132
in 1,4-dioxane, 298.45 K	0.00152
in 1,4-dioxane, 303.26 K	0.00181
in 1,4-dioxane, 308.67 K	0.00214
in 1,4-dioxane, 313.24 K	0.00253
in 1,4-dioxane, 318.36 K	0.00294
in 1,4-dioxane, 323.35 K	0.00335
in 1,4-dioxane, 328.23 K	0.00383
in 1,4-dioxane, 333.36 K	0.00438
in 1,4-dioxane, 338.25 K	0.00499
in 2-butanone, 293.15 K	0.00399
in 2-butanone, 298.16 K	0.00446
in 2-butanone, 303.17 K	0.00506
in 2-butanone, 308.18 K	0.00575
in 2-butanone, 313.16 K	0.00638
in 2-butanone, 318.19 K	0.00733
in 2-butanone, 323.15 K	0.00809
in 2-ethoxyethanol, 293.24 K	0.00325
in 2-ethoxyethanol, 298.24 K	0.00392
in 2-ethoxyethanol, 303.16 K	0.00455
in 2-ethoxyethanol, 308.17 K	0.00543
in 2-ethoxyethanol, 313.23 K	0.00637
in 2-ethoxyethanol, 318.16 K	0.00756
in 2-ethoxyethanol, 323.18 K	0.00897
in 2-ethoxyethanol, 328.15 K	0.0104
in 2-ethoxyethanol, 333.16 K	0.0122
in 2-ethoxyethanol, 338.17 K	0.014
in 2-ethoxyethanol, 343.16 K	0.0161
in 2-ethoxyethanol, 348.17 K	0.0185
in 2-ethoxyethanol, 353.16 K	0.0215
in 2-ethoxyethanol, 358.16 K	0.0244
in 2-ethoxyethanol, 363.17 K	0.0277
in 2-ethoxyethanol, 368.16 K	0.0319
in THF, 293.53 K	0.00524
in THF, 298.16 K	0.00615
in THF, 303.49 K	0.00727
in THF, 308.25 K	0.00845
in THF, 313.35 K	0.00996
in THF, 318.31 K	0.0115
in THF, 323.35 K	0.0133
in THF, 328.46 K	0.0153
in acetone, 293.17 K	0.00237
in acetone, 298.16 K	0.00275
in acetone, 303.26 K	0.00322
in acetone, 308.57 K	0.00371
in acetone, 313.24 K	0.00421
in acetone, 318.07 K	0.00479
in acetone, 323.25 K	0.00542
in acetone, 328.36 K	0.00622
in acetonitrile, 293.31 K	0.00156
in acetonitrile, 298.17 K	0.00187
in acetonitrile, 303.26 K	0.00223
in acetonitrile, 308.57 K	0.00273
in acetonitrile, 313.35 K	0.00318
in acetonitrile, 318.24 K	0.00375
in acetonitrile, 323.36 K	0.00438
in acetonitrile, 328.27 K	0.00522
in acetonitrile, 333.35 K	0.00614
in acetonitrile, 338.56 K	0.00738
in acetonitrile, 343.44 K	0.00841
in benzene, 293.17 K	0.00119
in benzene, 298.16 K	0.00121
in benzene, 304.76 K	0.00124
in benzene, 308.37 K	0.00127
in benzene, 313.55 K	0.00129
in benzene, 318.26 K	0.00133
in benzene, 323.24 K	0.00136
in benzene, 328.43 K	0.00138
in benzene, 333.46 K	0.00141
in benzene, 338.34 K	0.00143
in benzene, 343.26 K	0.00145
in benzene, 348.35 K	0.00147
in chloroform, 293.25 K	0.00224
in chloroform, 298.17 K	0.00319
in chloroform, 303.25 K	0.00436
in chloroform, 308.56 K	0.00611
in chloroform, 313.25 K	0.00806
in chloroform, 318.25 K	0.0106
in chloroform, 323.04 K	0.0139
in chloroform, 328.35 K	0.0188
in chloroform, 333.13 K	0.0234
in dichloromethane, 293.16 K	0.00103
in dichloromethane, 299.22 K	0.00127
in dichloromethane, 303.86 K	0.00146
in dichloromethane, 307.6 K	0.00167
in diethyl ether, 291.95 K	0.00179
in diethyl ether, 295.37 K	0.00204
in diethyl ether, 299.26 K	0.00234
in diethyl ether, 303.55 K	0.00275
in ethanol, 298.16 K	0.00136
in ethanol, 303.15 K	0.00157
in ethanol, 308.16 K	0.00187
in ethanol, 313.14 K	0.00218
in ethanol, 318.16 K	0.00246
in ethanol, 323.16 K	0.00288
in ethanol, 328.17 K	0.00329
in ethanol, 333.16 K	0.00383
in ethanol, 338.16 K	0.00426
in ethanol, 343.15 K	0.00485
in ethyl acetate, 293.25 K	0.00107
in ethyl acetate, 298.46 K	0.00132
in ethyl acetate, 303.27 K	0.00158
in ethyl acetate, 308.66 K	0.00193
in ethyl acetate, 313.27 K	0.0023
in ethyl acetate, 318.35 K	0.00281
in ethyl acetate, 323.35 K	0.00334
in ethyl acetate, 328.26 K	0.00392
in ethyl acetate, 333.37 K	0.00459
in ethyl acetate, 338.26 K	0.00539
in methanol, 293.24 K	0.00271
in methanol, 298.24 K	0.00298
in methanol, 303.16 K	0.00329
in methanol, 308.17 K	0.00365
in methanol, 313.23 K	0.00401
in methanol, 318.16 K	0.00443
in methanol, 323.15 K	0.00483
in pyridine, 293.43 K	0.00813
in pyridine, 298.35 K	0.00885
in pyridine, 303.51 K	0.00964
in pyridine, 308.35 K	0.0104
in pyridine, 313.35 K	0.0114
in pyridine, 318.31 K	0.0123
in pyridine, 323.35 K	0.0132
in pyridine, 328.45 K	0.0141
in toluene, 298.17 K	0.00115
in toluene, 303.25 K	0.00143
in toluene, 308.56 K	0.00185
in toluene, 313.34 K	0.00229
in toluene, 318.26 K	0.00285
in toluene, 323.37 K	0.00352
in toluene, 328.25 K	0.00424
in toluene, 333.34 K	0.00536
in toluene, 338.56 K	0.00646
in toluene, 343.45 K	0.00781
in water, 293.18 K	0.00014
in water, 298.77 K	0.0002
in water, 308.37 K	0.0003
in water, 313.56 K	0.00037
in water, 318.25 K	0.0005
in water, 323.24 K	0.00064
in water, 328.43 K	0.00086
in water, 333.45 K	0.00116
in water, 338.36 K	0.00148
in water, 343.26 K	0.00188
in water, 348.35 K	0.00241
in water, 353.24 K	0.00295
in water, 358.25 K	0.00371
in water, 363.36 K	0.00477
in water, 368.25 K	0.00591

O=C(O)CCP(=O)(O)c1ccccc1
Conditions	solubility (mole fraction)
in 2-butanone, 293.16 K	0.00061
in 2-butanone, 298.17 K	0.00077
in 2-butanone, 303.18 K	0.00103
in 2-butanone, 308.14 K	0.00127
in 2-butanone, 313.16 K	0.00163
in 2-butanone, 318.17 K	0.00206
in 2-butanone, 323.16 K	0.00253
in 2-butanone, 328.16 K	0.00316
in 2-butanone, 333.15 K	0.00395
in 2-ethoxyethanol, 293.16 K	0.0461
in 2-ethoxyethanol, 298.17 K	0.0512
in 2-ethoxyethanol, 303.18 K	0.0571
in 2-ethoxyethanol, 308.14 K	0.0638
in 2-ethoxyethanol, 313.16 K	0.0709
in 2-ethoxyethanol, 318.17 K	0.0777
in 2-ethoxyethanol, 323.16 K	0.0849
in 2-ethoxyethanol, 328.16 K	0.0937
in 2-ethoxyethanol, 333.15 K	0.102
in acetic acid, 293.16 K	0.0105
in acetic acid, 298.17 K	0.0116
in acetic acid, 303.18 K	0.013
in acetic acid, 308.14 K	0.0147
in acetic acid, 313.16 K	0.0164
in acetic acid, 318.17 K	0.0182
in acetic acid, 323.16 K	0.0205
in acetic acid, 328.16 K	0.0225
in acetic acid, 333.15 K	0.0249
in acetone, 293.16 K	0.00074
in acetone, 298.17 K	0.00093
in acetone, 303.18 K	0.00124
in acetone, 308.14 K	0.00153
in acetone, 313.16 K	0.00197
in acetone, 318.17 K	0.00248
in acetone, 323.16 K	0.00305
in acetonitrile, 293.16 K	6e-05
in acetonitrile, 298.17 K	0.0001
in acetonitrile, 303.18 K	0.00015
in acetonitrile, 308.14 K	0.00023
in acetonitrile, 313.16 K	0.00035
in acetonitrile, 318.17 K	0.00053
in acetonitrile, 323.16 K	0.00078
in acetonitrile, 328.16 K	0.00109
in acetonitrile, 333.15 K	0.00161
in benzene, 293.16 K	0.00081
in benzene, 298.17 K	0.00091
in benzene, 303.18 K	0.00099
in benzene, 308.14 K	0.00107
in benzene, 313.16 K	0.00114
in benzene, 318.17 K	0.00126
in benzene, 323.16 K	0.00134
in benzene, 328.16 K	0.00145
in benzene, 333.15 K	0.00156
in chloroform, 288.15 K	0.00021
in chloroform, 293.16 K	0.00026
in chloroform, 298.17 K	0.00033
in chloroform, 303.18 K	0.00041
in chloroform, 308.14 K	0.00052
in chloroform, 313.16 K	0.00063
in chloroform, 318.17 K	0.00079
in chloroform, 323.16 K	0.00093
in chloroform, 328.16 K	0.00112
in chloroform, 333.15 K	0.00133
in cyclohexane, 293.16 K	0.00088
in cyclohexane, 298.17 K	0.00108
in cyclohexane, 303.18 K	0.00128
in cyclohexane, 308.14 K	0.00157
in cyclohexane, 313.16 K	0.00186
in cyclohexane, 318.17 K	0.00222
in cyclohexane, 323.16 K	0.00263
in cyclohexane, 328.16 K	0.00314
in cyclohexane, 333.15 K	0.00371
in dichloromethane, 288.15 K	0.00029
in dichloromethane, 293.16 K	0.00042
in dichloromethane, 298.17 K	0.00059
in dichloromethane, 303.18 K	0.0008
in dichloromethane, 308.14 K	0.00111
in dichloromethane, 313.16 K	0.00149
in ethyl acetate, 293.16 K	0.00128
in ethyl acetate, 298.17 K	0.00148
in ethyl acetate, 303.18 K	0.00162
in ethyl acetate, 308.14 K	0.00182
in ethyl acetate, 313.16 K	0.00202
in ethyl acetate, 318.17 K	0.00226
in ethyl acetate, 323.16 K	0.00254
in ethyl acetate, 328.16 K	0.00281
in ethyl acetate, 333.15 K	0.00311
in toluene, 293.16 K	0.00051
in toluene, 298.17 K	0.00059
in toluene, 303.18 K	0.00068
in toluene, 308.14 K	0.00079
in toluene, 313.16 K	0.00092
in toluene, 318.17 K	0.00105
in toluene, 323.16 K	0.00119
in toluene, 328.16 K	0.00138
in toluene, 333.15 K	0.00154
in water, 298.25 K	0.00178
in water, 308.66 K	0.00366
in water, 318.07 K	0.00671
in water, 327.17 K	0.0133
in water, 337.55 K	0.0249
in water, 342.75 K	0.0339
in water, 345.06 K	0.0412
in water, 349.47 K	0.0568
